Data set [1] in a line: Cytotoxicity against HEK293 cells assessed as decrease in cell viability after 20 hrs by resazurin dye-based fluorescence assay. The note with it: human. In general terms: Alamar Blue is a resazurin reagent that responds to reducing activity.
The test system of data set [2] is Staphylococcus aureus. In words: Growth inhibition of Staphylococcus aureus ATCC 29213 incubated in MHB broth for 24 hrs. It counts as organism-based.
In data set [3] the test system is Pseudomonas aeruginosa. Description: Growth inhibition of Pseudomonas aeruginosa ATCC 27853 incubated for 18 hrs. The data set is classed as organism-based.
Data set [4] concerns Enterococcus faecalis. Description: Growth inhibition of Enterococcus faecalis ATCC 29212 incubated in MHB broth for 24 hrs. The data set is classed as organism-based.
For data set [5], the system named is Escherichia coli. Description: Growth inhibition of Escherichia coli ATCC 25922 incubated for 18 hrs. The data set is classed as organism-based.
For data set [6], the system named is Staphylococcus aureus. In words: Growth inhibition of methicillin-resistant Staphylococcus aureus ATCC 43300 incubated for 18 hrs. It counts as organism-based.
The subject of data set [7] is Clostridioides difficile. Description: Antibacterial activity against Clostridium difficile ATCC 700057 incubated for 2 to 4 hrs in pre-reduced brucella broth supplemented with haemin/vitamin K and further incubation in anaerobic condition for 48 hrs. It counts as functional.
Data set [8] concerns Klebsiella pneumoniae. In words: Growth inhibition of Klebsiella pneumoniae ATCC 700603 incubated for 18 hrs. It counts as organism-based.
Data set [9] deals with Streptococcus pneumoniae. Description: Growth inhibition of Streptococcus pneumoniae ATCC 49619 incubated in MHB medium with lysed horse blood and 5% CO2 for 24 hrs. The data set is classed as organism-based.
The subject of data set [10] is Clostridioides difficile. Description: Antibacterial activity against Clostridium difficile NSW132 RT027 incubated for 2 to 4 hrs in pre-reduced brucella broth supplemented with haemin/vitamin K and further incubation in anaerobic condition for 48 hrs. It counts as functional.
For data set [11], the system named is Acinetobacter baumannii. Description: Growth inhibition of Acinetobacter baumannii ATCC 19606 incubated for 18 hrs without shaking by absorbance based monochromator plate reader analysis. The data set is classed as organism-based, ATCC 19606 = CIP 70.34 = JCM 6841. Conditions: in vitro.

For the molecule `CC(C)CCOc1ccccc1-c1ccccc1OCc1cn([C@H](CCCCN)C(=O)NC2CCCCC2)nn1.Cl`, the cytotoxic concentration (CC50) at 20 h in data set [1] is more than 32 µg/mL. Also, the MIC is 8 µg/mL in data set [2]; 32 µg/mL in data set [3]; 16 µg/mL in data set [4]; more than 32 µg/mL in data set [5]; 8 µg/mL in [6]; 16 µg/mL in [7]. Further, the MIC was more than 32 µg/mL in data set [8], 8 µg/mL in data set [9], 32 µg/mL in data set [10] and 32 µg/mL in data set [11].
As for `CC(C)CCOc1ccccc1-c1ccccc1OCc1cn([C@H](CCCCN)C(=O)N[C@H](CCCNC(=N)N)Cn2cc(C3CCCCC3)nn2)nn1.Cl.Cl`, the CC50 at 20 h in [1] turned out to be 19.8 µg/mL. In addition, the MIC in data set [2] was found to be 16 µg/mL; in data set [3], 16 µg/mL; in data set [4], 16 µg/mL; in [5] it was 8 µg/mL; in data set [6], 4 µg/mL; in data set [7], 64 µg/mL. The MIC in [8] came to 16 µg/mL; in data set [9], 32 µg/mL; in [10], 128 µg/mL; in data set [11], 8 µg/mL.
In the case of `CC(C)CCOc1ccccc1-c1ccccc1OCc1cn([C@H](CCCNC(=N)N)C(=O)Nc2ccccc2)nn1.Cl`, in [1], the CC50 at 20 h is 21.6 µg/mL. Further, the MIC in [2] was 2 µg/mL; in data set [3], more than 32 µg/mL; in data set [4], 2 µg/mL; in [5], more than 32 µg/mL; in data set [6] it was 8 µg/mL; in data set [7], 16 µg/mL. Also, the MIC was more than 32 µg/mL in data set [8], 2 µg/mL in data set [9], 32 µg/mL in data set [10] and more than 32 µg/mL in data set [11].
Consider `CCCN(CC1CC1)C(=O)[C@@H](CCCNC(=N)N)n1cc(COc2ccccc2-c2ccccc2OCCC(C)C)nn1.Cl`, for which the CC50 at 20 h in [1] was found to be 19.7 µg/mL. The MIC is 4 µg/mL in [2]; more than 32 µg/mL in data set [3]; 4 µg/mL in [4]; more than 32 µg/mL in data set [5]; 8 µg/mL in [6]; 16 µg/mL in data set [7]. In addition, the MIC in data set [8] is more than 32 µg/mL; in data set [9] it was 2 µg/mL; in data set [10], 16 µg/mL; in [11] it was more than 32 µg/mL.
`CC(C)CCOc1ccc2ccccc2c1-c1c(OCC(=O)N[C@H](CCCNC(=N)N)C(=O)NCCc2ccc(F)cc2)ccc2ccccc12.Cl`: the CC50 at 20 h in data set [1] is more than 32 µg/mL. For the same molecule, the MIC in [2] is more than 128 µg/mL; in data set [3], more than 32 µg/mL; in [4] it was more than 128 µg/mL; in data set [5] it was more than 32 µg/mL; in [6], 4 µg/mL; in data set [7], more than 128 µg/mL. Further, the MIC is more than 32 µg/mL in data set [8], more than 128 µg/mL in data set [9], 64 µg/mL in data set [10] and more than 32 µg/mL in [11].
Consider `CC(C)CCOc1ccccc1-c1ccccc1OCc1cn([C@H](CCCNC(=N)N)C(=O)N[C@H](CCCCN)Cn2cc(Cc3ccccc3)nn2)nn1.Cl.Cl`, for which the CC50 at 20 h in [1] was more than 32 µg/mL. Also, the MIC in data set [2] is 8 µg/mL; in data set [3], 16 µg/mL; in data set [4], 8 µg/mL; in data set [5], more than 32 µg/mL; in data set [6], 8 µg/mL; in data set [7], 32 µg/mL. Further, the MIC was 32 µg/mL in data set [8], 4 µg/mL in data set [9], 16 µg/mL in data set [10] and 32 µg/mL in data set [11].
Regarding `CC(C)CCOc1ccc2ccccc2c1-c1c(OCC(=O)N[C@H](CCCNC(=N)N)C(=O)NCCc2ccccc2)ccc2ccccc12.Cl`, in [1], the CC50 at 20 h is more than 32 µg/mL. Besides, the MIC in data set [2] is 2 µg/mL; in data set [3], more than 32 µg/mL; in [4], 4 µg/mL; in data set [5], more than 32 µg/mL; in [6] it was 4 µg/mL; in data set [7], 32 µg/mL. Also, the MIC in data set [8] was more than 32 µg/mL; in data set [9], 2 µg/mL; in data set [10] it was 32 µg/mL; in data set [11], more than 32 µg/mL.
For `CC(C)CCOc1ccccc1-c1ccccc1OCc1cn([C@H](CCCNC(=N)N)C(=O)N[C@H](CCCCN)Cn2cc(C3CCCCC3)nn2)nn1.Cl.Cl`, in data set [1], the CC50 at 20 h was more than 32 µg/mL. The MIC stood at 8 µg/mL in data set [2]; 8 µg/mL in data set [3]; 8 µg/mL in data set [4]; 16 µg/mL in [5]; 4 µg/mL in [6]; 8 µg/mL in [7]. The MIC in data set [8] was found to be 16 µg/mL; in [9], 2 µg/mL; in [10] it was 16 µg/mL; in data set [11] it was 16 µg/mL.
`CC(C)CCOc1ccccc1-c1ccccc1OCc1cn([C@H](CCCCN)C(=O)NCc2ccc(C(F)(F)F)cc2)nn1.Cl`: in data set [1], the 50% cytotoxic concentration (CC50) at 20 h is more than 32 µg/mL. In addition, the MIC in [2] was 4 µg/mL; in [3], more than 32 µg/mL; in data set [4], 4 µg/mL; in [5] it was more than 32 µg/mL; in data set [6] it was 8 µg/mL; in data set [7] it was 32 µg/mL. Also, the MIC in data set [8] was more than 32 µg/mL; in data set [9], 8 µg/mL; in [10], 32 µg/mL; in [11], 32 µg/mL.
For the molecule `CC(C)CCOc1ccc2ccccc2c1-c1c(OCc2cn([C@H](CCCNC(=N)N)C(=O)N[C@H](CCCCN)Cn3cc(CCc4ccccc4)nn3)nn2)ccc2ccccc12.Cl.Cl`, the CC50 at 20 h in data set [1] was more than 32 µg/mL. Also, the MIC is 4 µg/mL in [2]; 32 µg/mL in data set [3]; 4 µg/mL in data set [4]; more than 32 µg/mL in data set [5]; 4 µg/mL in data set [6]; 16 µg/mL in data set [7]. Further, the MIC was more than 32 µg/mL in data set [8], 2 µg/mL in [9], 16 µg/mL in data set [10] and 32 µg/mL in [11].
With `CC(C)CCOc1ccc2ccccc2c1-c1c(OCc2cn([C@H](CCCCN)C(=O)N[C@H](CCCNC(=N)N)C(=O)NCCc3ccccc3)nn2)ccc2ccccc12.Cl.Cl`, in data set [1], the CC50 at 20 h worked out at 15.2 µg/mL. Also, the MIC was 8 µg/mL in [2]; 32 µg/mL in data set [3]; 4 µg/mL in data set [4]; more than 32 µg/mL in data set [5]; 2 µg/mL in data set [6]; 16 µg/mL in data set [7]. Also, the MIC is 16 µg/mL in data set [8], 8 µg/mL in data set [9], 32 µg/mL in [10] and 8 µg/mL in [11].
With `CC(C)CCOc1ccc2ccccc2c1-c1c(OCc2cn([C@H](CCCCN)C(=O)N[C@H](CCCNC(=N)N)C(=O)NCc3ccccc3)nn2)ccc2ccccc12.Cl.Cl`, the CC50 at 20 h in data set [1] was 17.4 µg/mL. The MIC in data set [2] is 8 µg/mL; in [3], 32 µg/mL; in [4] it was 8 µg/mL; in data set [5], more than 32 µg/mL; in data set [6], 4 µg/mL; in data set [7] it was 16 µg/mL. The MIC came out at 32 µg/mL in [8], 8 µg/mL in data set [9], 16 µg/mL in data set [10] and 32 µg/mL in data set [11].
In the case of `CC(C)CCOc1ccccc1-c1ccccc1OCc1cn([C@H](CCCCN)C(=O)NCCc2ccccc2)nn1.Cl`, in data set [1], the CC50 at 20 h was more than 32 µg/mL. Moreover, the MIC is 8 µg/mL in data set [2]; more than 32 µg/mL in data set [3]; 8 µg/mL in data set [4]; more than 32 µg/mL in data set [5]; 8 µg/mL in data set [6]; 32 µg/mL in [7]. Also, the MIC in data set [8] was more than 32 µg/mL; in data set [9], 8 µg/mL; in data set [10], 32 µg/mL; in [11] it was 32 µg/mL.
Take `CC(C)CCOc1ccc2ccccc2c1-c1c(OCc2cn([C@H](CCCCN)C(=O)N[C@H](CCCNC(=N)N)C(=O)N3CCCCC3)nn2)ccc2ccccc12.Cl.Cl`: the CC50 at 20 h in [1] amounted to 16.8 µg/mL. Further, the MIC in data set [2] worked out at 8 µg/mL; in [3], 16 µg/mL; in data set [4], 8 µg/mL; in data set [5] it was 32 µg/mL; in [6], 2 µg/mL; in data set [7], 16 µg/mL. Besides, the MIC came out at 16 µg/mL in [8], 8 µg/mL in data set [9], 32 µg/mL in data set [10] and 8 µg/mL in data set [11].
In the case of `CC(C)CCOc1ccccc1-c1ccccc1OCc1cn([C@H](CCCCN)C(=O)N[C@H](CCCNC(=N)N)Cn2cc(Cc3ccccc3)nn2)nn1.Cl.Cl`, the CC50 at 20 h in [1] turned out to be 17.1 µg/mL. Besides, the MIC in data set [2] was 4 µg/mL; in data set [3], 16 µg/mL; in data set [4], 8 µg/mL; in data set [5] it was 8 µg/mL; in data set [6], 4 µg/mL; in data set [7], 8 µg/mL. Further, the MIC in [8] is 32 µg/mL; in data set [9] it was 4 µg/mL; in data set [10], 16 µg/mL; in data set [11], 16 µg/mL.

One may read the CC50 as the concentration giving 50% cytotoxicity.

The values above are taken from ChEMBL document CHEMBL4393656, “Cationic biaryl 1,2,3-triazolyl peptidomimetic amphiphiles targeting Clostridioides (Clostridium) difficile: Synthesis, antibacterial evaluation and an in vivo C. difficile infection model” (Eur J Med Chem, 2019).
